# In patent US9498442B2 (ALFA WASSERMANN S.P.A., priority 2010, dated 2016):
# Read-outs that look alike come from different tables or passages of the source.
# What was measured:
# [1] = system: enteric bacteria pathogens; settings: cited from earlier work
# [2] = system: enterotoxogenic Escherichia coli isolates; settings: cited from earlier work
# [3] = Rifaximin solubility at different pH, shake flask method; type: physicochemical; settings: for solubility: thermodynamic from solid, shake flask, 20° C.
# Experimental: The study was conducted in accordance with accepted principles in order to meet the requirements of the Annex to European Commission Directive 92/69/EEC and the OECD Guidelines for Testing of Chemicals (EEC Method A6, OECD Method 105). […] Aliquots of the saturated solutions of rifaximin-α were adequately diluted, then analyzed by a high performance liquid chromatography (HPLC) method.
# [4] = Stability of rifaximin powder obtained by spray drying on storage; type: physicochemical; settings: for Description / Total impurities / Water content (Karl Fisher) / X-Ray diffraction spectrum: 40° C. ± 2° C., RH 75 ± 5%; for X-Ray diffraction spectrum: complies with an amorphous form of Rifaximin
# [5] = Particle size dimension (PSD), Beckman-Coulter LS100 Q; type: physicochemical; settings: solvent White Spirit
# Experimental: The particle size analysis were performed using Beckman—Coulter LS100 Q particle size analyzer equipped with a micro-volume cell. The solvent used is White Spirit (WS). In Table 4 are reported the average size of the particles obtained with spray drying and milling processes.
# [6] = PK study on dogs of rifaximin prepared by spray drying; type: in vivo, dog (beagle); settings: blood
# Experimental: Capsules of hard gelatin containing only rifaximin were administered, and the pre- and post-dose observations, the body weight and the physical examination were evaluated.
# Blood samples were collected from all animals on each day of dosing at: 0 (pre-dose), 1, 2, 4, 6, 8 and 24 hours after each dosing.
# Bulk density = type: physicochemical; settings: 10 ml volumetric flask, three samples
# [7] = Solubility over time of rifaximin preparations in phosphate buffer pH 6.8; type: physicochemical
# Experimental: Samples taken at 5-minute intervals during the first hour and at 15-minute intervals in the remaining time, are analysed in HPLC after filtration.
structure (smiles),measurement,setting,value
"CO[C@H]1/C=C/O[C@@]2(C)Oc3c(C)c(O)c4c(O)c(c5c(nc6cc(C)ccn65)c4c3C2=O)NC(=O)/C(C)=C\C=C\[C@H](C)[C@H](O)[C@@H](C)[C@@H](O)[C@@H](C)[C@H](OC(C)=O)[C@@H]1C [rifaximin, (2S,16Z,18E,20S,21S,22R,23R,24R,25S,26S,27S,28E)-5,6,21,23,25 pentahydroxy-27-methoxy-2,4,11,16,20,22,24,26-octamethyl-2,7-(epoxypentadeca-(1,11,13)trienimino) benzofuro (4,5-e) pyrido(1,2,-a) benzimi-dazole-1,15(2H)-dione,25-acetate]",sub-inhibitory concentration at which alteration of virulence factor occurs,[1],32 folds lower than the MIC values
same,virulence of the pathogens,[2]; contact maintained only for 8 hours,not abolished
same,concentration effective in the alteration of the virulence,[2]; continuous contact for at least 24 hours,8 fold lower than MIC
same,effect of pH variation on solubility,[3]; pH variation between 5 and 7,does not affect the solubility
"CO[C@H]1/C=C/O[C@@]2(C)Oc3c(C)c(O)c4c(O)c(c5c(nc6cc(C)ccn65)c4c3C2=O)NC(=O)/C(C)=C\C=C\[C@H](C)[C@H](O)[C@@H](C)[C@@H](O)[C@@H](C)[C@H](OC(C)=O)[C@@H]1C [Example 1, rifaximin]",Description,[4]; 1 month,Red-orange
same,Total impurities,[4]; 1 month,0.54%
same,Water content (Karl Fisher),[4]; 1 month,4.9%
same,X-Ray diffraction spectrum,[4]; 1 month,Complies with
same,Description,[4]; 3 months,Red-orange
same,Total impurities,[4]; 3 months,0.95%
same,Water content (Karl Fisher),[4]; 3 months,5.4%
same,X-Ray diffraction spectrum,[4]; 3 months,Complies with
same,stability of the obtained rifaximin powder,"[4]; 40° C.+2, relative humidity 75%, up to three months",stable
same,Description,"[4]; T0, acceptance Red-orange powder",Red-orange
same,Total impurities,"[4]; T0, acceptance ≦2.0%",0.51%
same,Water content (Karl Fisher),"[4]; T0, acceptance ≦8%",2.2%
same,X-Ray diffraction spectrum,[4]; T0,Complies with
same,stability of rifaximin in powder form,"[4]; after three months, 30° C. to 40° C., humidity degree higher than 50%",stable
same,Diameter Particle d10,[5]; listed as Spray Drying Process,4.56 μm
same,Diameter Particle d50,[5]; listed as Spray Drying Process,19.60 μm
same,Diameter Particle d90,[5]; listed as Spray Drying Process,62.21 μm
same,Tmax,"[6]; female, beagle, dog, po, 100 mg/kg",2 h
same,AUC(0-t),"[6]; female, beagle, dog, po, 100 mg/kg, read-out: AUC0-24 h, mean (±standard error)",2850 ± 1490 ng·h/mL
same,Cmax,"[6]; female, beagle, dog, po, 100 mg/kg, read-out: Cmax, mean (±standard error)",1040 ± 588 ng/mL
same,AUC(0-t),"[6]; human (calculated), oral, 2.9 mg/kg, calculated from dog values (100 mg/kg, HED 54.4 mg/kg), mean ± standard error, read-out: AUC0-24 h, values calculated in humans proportionally reduced to the dosage 2.9 mg/kg",143 ± 80.1 ng·h/mL
same,Cmax,"[6]; human (calculated), oral, 2.9 mg/kg, calculated from dog values (100 mg/kg, HED 54.4 mg/kg), mean ± standard error, read-out: Cmax, values calculated in humans proportionally reduced to the dosage 2.9 mg/kg",56.1 ± 31.6 ng/mL
same,bulk density,Bulk density; listed as rifaximin by spay drying,0.257 g/mL
same,"Solubility over time, Concentration","[7]; 10 min, phosphate buffer pH 6.8, 30±0.5° C., listed as Spray drying",30.2 µg/mL
same,"Solubility over time, Concentration","[7]; 15 min, phosphate buffer pH 6.8, 30±0.5° C., listed as Spray drying",44.0 µg/mL
same,"Solubility over time, Concentration","[7]; 20 min, phosphate buffer pH 6.8, 30±0.5° C., listed as Spray drying",47.0 µg/mL
same,"Solubility over time, Concentration","[7]; 25 min, phosphate buffer pH 6.8, 30±0.5° C., listed as Spray drying",38.0 µg/mL
same,"Solubility over time, Concentration","[7]; 60 min, phosphate buffer pH 6.8, 30±0.5° C., listed as Spray drying",11.0 µg/mL
same,"Solubility over time, Concentration","[7]; 75 min, phosphate buffer pH 6.8, 30±0.5° C., listed as Spray drying",9.9 µg/mL
same,"Solubility over time, Concentration","[7]; 90 min, phosphate buffer pH 6.8, 30±0.5° C., listed as Spray drying",9.5 µg/mL
same,"Solubility over time, Concentration","[7]; 105 min, phosphate buffer pH 6.8, 30±0.5° C., listed as Spray drying",9.3 µg/mL
same,"Solubility over time, Concentration","[7]; 120 min, phosphate buffer pH 6.8, 30±0.5° C., listed as Spray drying",9.1 µg/mL
same,"Solubility over time, Concentration","[7]; 135 min, phosphate buffer pH 6.8, 30±0.5° C., listed as Spray drying",9.0 µg/mL
same,"Solubility over time, Concentration","[7]; 150 min, phosphate buffer pH 6.8, 30±0.5° C., listed as Spray drying",8.8 µg/mL
same,solubility at 5 min,"[7]; phosphate buffer, 30 °C, pH 6.8, aqueous buffer, thermodynamic from solid, 5 min, 500 mg in 750 ml phosphate buffer pH 6.8, 30±0.5° C., 250 rpm, read-out: Solubility over time, Concentration",14.4 µg/mL
same,solubility at 30 min,"[7]; phosphate buffer, 30 °C, pH 6.8, aqueous buffer, thermodynamic from solid, 30 min, phosphate buffer pH 6.8, 30±0.5° C., read-out: Solubility over time, Concentration",28.7 µg/mL
same,solubility at 35 min,"[7]; phosphate buffer, 30 °C, pH 6.8, aqueous buffer, thermodynamic from solid, 35 min, phosphate buffer pH 6.8, 30±0.5° C., read-out: Solubility over time, Concentration",22.4 µg/mL
same,solubility at 40 min,"[7]; phosphate buffer, 30 °C, pH 6.8, aqueous buffer, thermodynamic from solid, 40 min, phosphate buffer pH 6.8, 30±0.5° C., read-out: Solubility over time, Concentration",17.7 µg/mL
same,solubility at 45 min,"[7]; phosphate buffer, 30 °C, pH 6.8, aqueous buffer, thermodynamic from solid, 45 min, phosphate buffer pH 6.8, 30±0.5° C., read-out: Solubility over time, Concentration",14.9 µg/mL
same,solubility at 50 min,"[7]; phosphate buffer, 30 °C, pH 6.8, aqueous buffer, thermodynamic from solid, 50 min, phosphate buffer pH 6.8, 30±0.5° C., read-out: Solubility over time, Concentration",13.1 µg/mL
same,solubility at 55 min,"[7]; phosphate buffer, 30 °C, pH 6.8, aqueous buffer, thermodynamic from solid, 55 min, phosphate buffer pH 6.8, 30±0.5° C., read-out: Solubility over time, Concentration",11.8 µg/mL
"CO[C@H]1/C=C/O[C@@]2(C)Oc3c(C)c(O)c4c(O)c(c5c(nc6cc(C)ccn65)c4c3C2=O)NC(=O)/C(C)=C\C=C\[C@H](C)[C@H](O)[C@@H](C)[C@@H](O)[C@@H](C)[C@H](OC(C)=O)[C@@H]1C [rifaximin-α, rifaximin]",solubility,"[3]; aqueous buffer, pH 4 buffer solution",4.12 µg/mL
same,solubility,"[3]; aqueous buffer, pH 7 buffer solution",3.22 µg/mL
same,solubility,"[3]; aqueous buffer, pH 10 buffer solution",299 µg/mL
same,solubility,"[3]; Purified water, saturated solutions of rifaximin-α",3.63 µg/mL
"CO[C@H]1/C=C/O[C@@]2(C)Oc3c(C)c(O)c4c(O)c(c5c(nc6cc(C)ccn65)c4c3C2=O)NC(=O)/C(C)=C\C=C\[C@H](C)[C@H](O)[C@@H](C)[C@@H](O)[C@@H](C)[C@H](OC(C)=O)[C@@H]1C [rifaximin by milling, rifaximin, reference compound]",Diameter Particle d10,[5]; listed as Milling Process,1.84 μm
same,Diameter Particle d50,[5]; listed as Milling Process,8.17 μm
same,Diameter Particle d90,[5]; listed as Milling Process,12.92 μm
same,bulk density,Bulk density,0.327 g/mL
same,"Solubility over time, Concentration","[7]; 5 min, 500 mg in 750 ml phosphate buffer pH 6.8, 30±0.5° C., 250 rpm",10.8 µg/mL
same,"Solubility over time, Concentration","[7]; 10 min, phosphate buffer pH 6.8, 30±0.5° C.",14.3 µg/mL
same,"Solubility over time, Concentration","[7]; 15 min, phosphate buffer pH 6.8, 30±0.5° C.",15.9 µg/mL
same,"Solubility over time, Concentration","[7]; 20 min, phosphate buffer pH 6.8, 30±0.5° C.",16.7 µg/mL
same,"Solubility over time, Concentration","[7]; 25 min, phosphate buffer pH 6.8, 30±0.5° C.",16.9 µg/mL
same,"Solubility over time, Concentration","[7]; 30 min, phosphate buffer pH 6.8, 30±0.5° C.",16.7 µg/mL
same,"Solubility over time, Concentration","[7]; 35 min, phosphate buffer pH 6.8, 30±0.5° C.",16.1 µg/mL
same,"Solubility over time, Concentration","[7]; 40 min, phosphate buffer pH 6.8, 30±0.5° C.",15.4 µg/mL
same,"Solubility over time, Concentration","[7]; 45 min, phosphate buffer pH 6.8, 30±0.5° C.",14.8 µg/mL
same,"Solubility over time, Concentration","[7]; 50 min, phosphate buffer pH 6.8, 30±0.5° C.",14.0 µg/mL
same,"Solubility over time, Concentration","[7]; 55 min, phosphate buffer pH 6.8, 30±0.5° C.",13.5 µg/mL
same,"Solubility over time, Concentration","[7]; 90 min, phosphate buffer pH 6.8, 30±0.5° C.",10.9 µg/mL
same,"Solubility over time, Concentration","[7]; 105 min, phosphate buffer pH 6.8, 30±0.5° C.",9.8 µg/mL
same,"Solubility over time, Concentration","[7]; 120 min, phosphate buffer pH 6.8, 30±0.5° C.",9.0 µg/mL
same,"Solubility over time, Concentration","[7]; 135 min, phosphate buffer pH 6.8, 30±0.5° C.",8.3 µg/mL
same,"Solubility over time, Concentration","[7]; 150 min, phosphate buffer pH 6.8, 30±0.5° C.",7.9 µg/mL
same,solubility at 60 min,"[7]; phosphate buffer, 30 °C, pH 6.8, aqueous buffer, thermodynamic from solid, 60 min, phosphate buffer pH 6.8, 30±0.5° C., read-out: Solubility over time, Concentration",12.9 µg/mL
same,solubility at 75 min,"[7]; phosphate buffer, 30 °C, pH 6.8, aqueous buffer, thermodynamic from solid, 75 min, phosphate buffer pH 6.8, 30±0.5° C., read-out: Solubility over time, Concentration",12.1 µg/mL
